Measurements published in ChEMBL document CHEMBL4507293 (2021).

Legend:
[1] = molecular target: T1, Alpha-1A adrenergic receptor (Homo sapiens) (UniProt P35348); conditions: Compound concentration 10.0 uM
T1 sequence (whole entry): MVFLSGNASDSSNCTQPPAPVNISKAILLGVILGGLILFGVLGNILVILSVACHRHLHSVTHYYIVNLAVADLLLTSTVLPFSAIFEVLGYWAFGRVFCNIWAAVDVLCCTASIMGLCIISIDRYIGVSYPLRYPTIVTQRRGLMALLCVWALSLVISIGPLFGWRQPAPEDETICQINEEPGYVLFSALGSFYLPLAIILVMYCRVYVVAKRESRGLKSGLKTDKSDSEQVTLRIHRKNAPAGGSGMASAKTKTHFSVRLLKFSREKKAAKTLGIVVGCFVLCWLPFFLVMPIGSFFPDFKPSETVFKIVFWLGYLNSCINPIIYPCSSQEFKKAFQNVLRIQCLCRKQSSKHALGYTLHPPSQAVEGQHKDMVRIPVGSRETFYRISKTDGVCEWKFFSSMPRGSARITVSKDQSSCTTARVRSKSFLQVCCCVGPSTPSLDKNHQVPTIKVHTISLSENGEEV

[2] = molecular target: Mitogen-activated protein kinase kinase kinase 14 (Homo sapiens) (UniProt Q99558); conditions: Compound concentration 100.0 nM
Sequence of Mitogen-activated protein kinase kinase kinase 14 (Homo sapiens) (Q99558 whole entry, looked up): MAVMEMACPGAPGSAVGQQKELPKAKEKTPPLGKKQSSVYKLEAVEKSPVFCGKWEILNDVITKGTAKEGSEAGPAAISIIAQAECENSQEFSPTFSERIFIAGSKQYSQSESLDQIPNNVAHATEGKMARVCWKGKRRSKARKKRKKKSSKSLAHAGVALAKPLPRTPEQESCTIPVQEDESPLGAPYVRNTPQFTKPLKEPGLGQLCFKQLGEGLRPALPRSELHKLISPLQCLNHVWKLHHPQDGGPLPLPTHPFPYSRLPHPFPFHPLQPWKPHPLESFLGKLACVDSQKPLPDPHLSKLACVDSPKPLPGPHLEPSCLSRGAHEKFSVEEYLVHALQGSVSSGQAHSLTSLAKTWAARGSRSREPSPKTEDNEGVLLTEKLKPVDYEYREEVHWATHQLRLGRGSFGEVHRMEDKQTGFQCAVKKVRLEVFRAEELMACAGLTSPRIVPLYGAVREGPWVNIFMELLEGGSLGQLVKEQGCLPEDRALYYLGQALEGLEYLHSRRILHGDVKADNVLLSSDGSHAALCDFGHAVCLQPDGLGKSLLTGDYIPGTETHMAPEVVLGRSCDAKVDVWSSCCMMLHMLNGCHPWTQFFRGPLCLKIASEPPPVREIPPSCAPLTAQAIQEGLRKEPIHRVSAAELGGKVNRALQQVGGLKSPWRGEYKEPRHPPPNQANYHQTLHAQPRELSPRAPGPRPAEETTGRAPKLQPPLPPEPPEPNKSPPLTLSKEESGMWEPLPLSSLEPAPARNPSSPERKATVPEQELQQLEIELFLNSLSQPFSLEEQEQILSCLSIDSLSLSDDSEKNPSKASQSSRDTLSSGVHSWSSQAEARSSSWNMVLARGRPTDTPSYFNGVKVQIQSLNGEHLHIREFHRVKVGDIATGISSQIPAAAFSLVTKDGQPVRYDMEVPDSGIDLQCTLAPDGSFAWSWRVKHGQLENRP

[3] = molecular target: T2, Alpha-2B adrenergic receptor (Homo sapiens) (UniProt P18089); conditions: Compound concentration 10.0 uM
T2 sequence (whole entry): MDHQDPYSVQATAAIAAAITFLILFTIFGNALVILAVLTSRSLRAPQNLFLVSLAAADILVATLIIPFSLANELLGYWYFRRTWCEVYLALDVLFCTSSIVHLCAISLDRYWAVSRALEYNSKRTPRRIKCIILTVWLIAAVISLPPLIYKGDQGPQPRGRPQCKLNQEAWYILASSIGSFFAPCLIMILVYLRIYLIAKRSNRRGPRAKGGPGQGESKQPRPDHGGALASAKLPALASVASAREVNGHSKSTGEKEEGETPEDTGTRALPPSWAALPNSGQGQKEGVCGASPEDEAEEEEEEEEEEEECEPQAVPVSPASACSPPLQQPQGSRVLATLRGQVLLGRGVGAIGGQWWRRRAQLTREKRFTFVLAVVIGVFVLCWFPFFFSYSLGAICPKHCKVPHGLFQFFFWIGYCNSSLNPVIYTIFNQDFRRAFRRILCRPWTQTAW

[4] = molecular target: Mitogen-activated protein kinase kinase kinase kinase 2 (Homo sapiens) (UniProt Q12851); conditions: Compound concentration 100.0 nM
[5] = molecular target: Dual specificity protein kinase TTK (Homo sapiens) (UniProt P33981); conditions: Compound concentration 100.0 nM
[6] = molecular target: Myosin light chain kinase (Homo sapiens) (UniProt Q32MK0); conditions: Compound concentration 100.0 nM
[7] = molecular target: T3, 5-hydroxytryptamine receptor 2C (Homo sapiens) (UniProt P28335); conditions: Compound concentration 10.0 uM
T3 sequence (whole entry): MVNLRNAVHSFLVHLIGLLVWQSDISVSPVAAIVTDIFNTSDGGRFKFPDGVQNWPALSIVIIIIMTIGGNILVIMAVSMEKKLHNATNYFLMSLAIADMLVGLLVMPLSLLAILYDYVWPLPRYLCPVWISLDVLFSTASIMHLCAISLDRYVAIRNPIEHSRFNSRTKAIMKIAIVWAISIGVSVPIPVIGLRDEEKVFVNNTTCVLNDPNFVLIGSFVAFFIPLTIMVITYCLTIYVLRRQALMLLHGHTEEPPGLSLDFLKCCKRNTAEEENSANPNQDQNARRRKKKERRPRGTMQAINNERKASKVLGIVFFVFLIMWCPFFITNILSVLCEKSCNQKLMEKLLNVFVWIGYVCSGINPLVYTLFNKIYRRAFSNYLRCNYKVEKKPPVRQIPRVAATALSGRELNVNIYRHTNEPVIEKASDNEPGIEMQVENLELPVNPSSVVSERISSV

[8] = molecular target: MAP kinase-activated protein kinase 5 (Homo sapiens) (UniProt Q8IW41); conditions: Compound concentration 100.0 nM
Sequence of MAP kinase-activated protein kinase 5 (Homo sapiens) (Q8IW41 whole entry): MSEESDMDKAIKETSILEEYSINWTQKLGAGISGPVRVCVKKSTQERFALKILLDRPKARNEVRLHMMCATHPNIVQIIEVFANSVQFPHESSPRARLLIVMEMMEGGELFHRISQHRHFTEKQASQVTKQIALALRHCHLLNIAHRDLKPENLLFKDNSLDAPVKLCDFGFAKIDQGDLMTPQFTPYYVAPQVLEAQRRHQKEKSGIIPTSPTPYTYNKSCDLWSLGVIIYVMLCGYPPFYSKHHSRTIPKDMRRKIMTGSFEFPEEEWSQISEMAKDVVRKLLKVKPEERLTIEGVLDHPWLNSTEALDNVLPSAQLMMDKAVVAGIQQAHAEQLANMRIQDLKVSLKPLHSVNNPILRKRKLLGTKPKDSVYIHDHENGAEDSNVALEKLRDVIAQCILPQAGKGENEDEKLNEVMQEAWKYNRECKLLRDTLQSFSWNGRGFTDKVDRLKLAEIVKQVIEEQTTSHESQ

[9] = tested on: Epidermal growth factor receptor (Homo sapiens), P00533 [UNDEFINED MUTATION]; conditions: Compound concentration 100.0 nM
Sequence of Epidermal growth factor receptor (Homo sapiens), P00533 [UNDEFINED MUTATION] (P00533 whole entry, looked up, change not shown): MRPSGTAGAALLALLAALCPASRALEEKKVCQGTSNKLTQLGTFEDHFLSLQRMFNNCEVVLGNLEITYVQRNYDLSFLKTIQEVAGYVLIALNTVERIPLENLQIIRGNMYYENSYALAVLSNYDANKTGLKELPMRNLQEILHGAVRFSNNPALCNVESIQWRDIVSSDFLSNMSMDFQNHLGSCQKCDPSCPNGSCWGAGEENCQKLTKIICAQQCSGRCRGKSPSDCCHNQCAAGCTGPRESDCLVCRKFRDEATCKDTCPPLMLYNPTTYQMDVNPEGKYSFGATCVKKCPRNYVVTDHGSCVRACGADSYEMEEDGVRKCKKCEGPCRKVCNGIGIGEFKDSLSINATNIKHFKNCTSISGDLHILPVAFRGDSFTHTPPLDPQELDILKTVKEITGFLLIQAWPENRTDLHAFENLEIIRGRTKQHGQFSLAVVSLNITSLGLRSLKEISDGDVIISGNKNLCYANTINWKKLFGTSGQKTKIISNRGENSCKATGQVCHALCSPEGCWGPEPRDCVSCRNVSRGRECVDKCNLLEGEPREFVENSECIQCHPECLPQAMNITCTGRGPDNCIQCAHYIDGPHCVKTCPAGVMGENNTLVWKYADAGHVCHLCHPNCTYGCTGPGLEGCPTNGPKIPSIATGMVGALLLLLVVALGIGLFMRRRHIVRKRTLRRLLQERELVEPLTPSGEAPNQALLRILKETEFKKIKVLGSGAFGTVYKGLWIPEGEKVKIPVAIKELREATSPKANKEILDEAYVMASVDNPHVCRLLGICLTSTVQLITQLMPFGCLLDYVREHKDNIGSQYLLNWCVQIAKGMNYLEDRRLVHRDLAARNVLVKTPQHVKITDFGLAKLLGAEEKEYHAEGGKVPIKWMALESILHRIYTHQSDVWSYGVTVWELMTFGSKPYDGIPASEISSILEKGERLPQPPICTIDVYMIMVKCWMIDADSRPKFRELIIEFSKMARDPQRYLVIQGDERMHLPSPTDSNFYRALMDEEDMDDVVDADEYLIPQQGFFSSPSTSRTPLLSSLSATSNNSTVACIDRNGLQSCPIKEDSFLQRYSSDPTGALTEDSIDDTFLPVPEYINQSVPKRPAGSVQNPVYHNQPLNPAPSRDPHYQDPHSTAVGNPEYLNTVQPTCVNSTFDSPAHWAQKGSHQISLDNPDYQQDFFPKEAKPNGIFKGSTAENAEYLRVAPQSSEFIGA

[10] = molecular target: T4, Muscarinic acetylcholine receptor M5 (Homo sapiens) (UniProt P08912); conditions: Compound concentration 10.0 uM
T4 sequence (whole entry): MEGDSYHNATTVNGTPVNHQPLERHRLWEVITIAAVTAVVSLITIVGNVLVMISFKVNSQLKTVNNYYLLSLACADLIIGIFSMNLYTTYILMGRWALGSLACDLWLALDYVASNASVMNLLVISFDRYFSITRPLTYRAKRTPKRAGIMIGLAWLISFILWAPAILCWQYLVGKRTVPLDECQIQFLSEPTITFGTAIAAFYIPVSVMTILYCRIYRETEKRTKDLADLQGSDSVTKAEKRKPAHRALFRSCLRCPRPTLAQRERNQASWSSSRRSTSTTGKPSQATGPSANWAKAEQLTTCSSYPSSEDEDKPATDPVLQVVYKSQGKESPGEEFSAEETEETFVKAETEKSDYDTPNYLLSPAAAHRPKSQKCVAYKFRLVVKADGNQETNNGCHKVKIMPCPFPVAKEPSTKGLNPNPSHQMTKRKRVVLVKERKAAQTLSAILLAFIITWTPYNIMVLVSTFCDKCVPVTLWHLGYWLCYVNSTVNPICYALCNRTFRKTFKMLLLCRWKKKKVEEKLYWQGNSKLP

[11] = molecular target: Peripheral plasma membrane protein CASK (Homo sapiens) (UniProt O14936); conditions: Compound concentration 100.0 nM
Sequence of Peripheral plasma membrane protein CASK (Homo sapiens) (O14936 whole entry): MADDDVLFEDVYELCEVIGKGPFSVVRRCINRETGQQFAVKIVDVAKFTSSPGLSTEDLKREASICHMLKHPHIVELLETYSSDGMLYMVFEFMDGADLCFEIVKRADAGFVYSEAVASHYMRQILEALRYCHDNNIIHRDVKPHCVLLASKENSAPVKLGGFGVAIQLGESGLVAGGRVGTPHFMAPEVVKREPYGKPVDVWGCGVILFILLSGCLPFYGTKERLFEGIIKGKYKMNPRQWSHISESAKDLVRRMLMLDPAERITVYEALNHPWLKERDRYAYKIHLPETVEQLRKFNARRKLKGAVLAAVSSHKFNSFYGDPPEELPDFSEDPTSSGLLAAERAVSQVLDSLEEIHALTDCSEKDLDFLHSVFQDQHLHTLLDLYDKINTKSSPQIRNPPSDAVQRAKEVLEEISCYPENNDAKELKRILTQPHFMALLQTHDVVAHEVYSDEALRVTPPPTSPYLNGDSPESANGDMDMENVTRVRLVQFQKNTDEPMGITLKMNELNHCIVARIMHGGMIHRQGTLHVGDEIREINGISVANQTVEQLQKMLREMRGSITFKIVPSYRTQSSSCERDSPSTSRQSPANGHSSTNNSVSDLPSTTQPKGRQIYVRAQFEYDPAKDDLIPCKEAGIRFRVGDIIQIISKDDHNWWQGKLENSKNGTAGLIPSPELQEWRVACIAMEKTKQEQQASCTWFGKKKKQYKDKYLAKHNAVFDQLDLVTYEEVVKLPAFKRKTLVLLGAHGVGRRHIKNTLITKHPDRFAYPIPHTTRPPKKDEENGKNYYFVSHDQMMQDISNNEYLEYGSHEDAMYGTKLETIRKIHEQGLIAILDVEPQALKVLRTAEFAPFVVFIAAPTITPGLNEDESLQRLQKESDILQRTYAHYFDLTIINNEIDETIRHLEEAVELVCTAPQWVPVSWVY

[12] = molecular target: Activin receptor type-1-like (Homo sapiens) (UniProt P37023); conditions: Compound concentration 100.0 nM
[13] = molecular target: Serine/threonine-protein kinase 24 (Homo sapiens) (UniProt Q9Y6E0); conditions: Compound concentration 100.0 nM
Sequence of Serine/threonine-protein kinase 24 (Homo sapiens) (Q9Y6E0 whole entry, looked up): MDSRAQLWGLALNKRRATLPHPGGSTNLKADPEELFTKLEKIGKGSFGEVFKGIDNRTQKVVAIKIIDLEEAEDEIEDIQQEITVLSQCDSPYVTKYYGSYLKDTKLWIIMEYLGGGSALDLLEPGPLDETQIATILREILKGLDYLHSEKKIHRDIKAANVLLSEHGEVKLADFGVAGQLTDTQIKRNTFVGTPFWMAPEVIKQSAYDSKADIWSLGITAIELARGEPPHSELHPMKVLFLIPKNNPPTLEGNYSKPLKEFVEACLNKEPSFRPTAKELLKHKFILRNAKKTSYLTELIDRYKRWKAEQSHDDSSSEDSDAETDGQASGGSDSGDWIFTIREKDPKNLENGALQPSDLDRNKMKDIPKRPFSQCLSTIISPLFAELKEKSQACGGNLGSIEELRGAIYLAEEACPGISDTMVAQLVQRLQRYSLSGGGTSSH

[14] = molecular target: Wee1-like protein kinase 2 (Homo sapiens) (UniProt P0C1S8); conditions: Compound concentration 100.0 nM
Sequence of Wee1-like protein kinase 2 (Homo sapiens) (P0C1S8 whole entry, looked up): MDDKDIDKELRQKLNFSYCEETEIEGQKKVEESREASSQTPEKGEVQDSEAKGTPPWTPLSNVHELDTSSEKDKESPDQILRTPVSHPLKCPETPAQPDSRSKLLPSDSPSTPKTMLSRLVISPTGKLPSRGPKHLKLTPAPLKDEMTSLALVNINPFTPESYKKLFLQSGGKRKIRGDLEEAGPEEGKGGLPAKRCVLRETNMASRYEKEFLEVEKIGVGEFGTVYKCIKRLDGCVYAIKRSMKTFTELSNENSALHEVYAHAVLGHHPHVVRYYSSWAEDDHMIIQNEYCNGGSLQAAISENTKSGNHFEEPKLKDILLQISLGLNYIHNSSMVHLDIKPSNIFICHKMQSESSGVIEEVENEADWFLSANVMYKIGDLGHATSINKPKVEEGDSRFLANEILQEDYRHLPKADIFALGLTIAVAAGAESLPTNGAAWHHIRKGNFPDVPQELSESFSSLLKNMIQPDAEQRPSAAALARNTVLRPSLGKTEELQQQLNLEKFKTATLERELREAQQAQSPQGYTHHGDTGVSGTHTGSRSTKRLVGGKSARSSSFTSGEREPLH

[15] = molecular target: Cyclin-dependent kinase-like 3 (Homo sapiens) (UniProt Q8IVW4); conditions: Compound concentration 100.0 nM
[16] = molecular target: Ephrin type-A receptor 2 (Homo sapiens) (UniProt P29317); conditions: Compound concentration 100.0 nM
[17] = molecular target: Serine/threonine-protein kinase PAK 6 (Homo sapiens) (UniProt Q9NQU5); conditions: Compound concentration 100.0 nM
[18] = molecular target: Ephrin type-A receptor 1 (Homo sapiens) (UniProt P21709); conditions: Compound concentration 100.0 nM
[19] = molecular target: Dual specificity protein kinase CLK4 (Homo sapiens) (UniProt Q9HAZ1); conditions: Compound concentration 100.0 nM
Sequence of Dual specificity protein kinase CLK4 (Homo sapiens) (Q9HAZ1 whole entry, looked up): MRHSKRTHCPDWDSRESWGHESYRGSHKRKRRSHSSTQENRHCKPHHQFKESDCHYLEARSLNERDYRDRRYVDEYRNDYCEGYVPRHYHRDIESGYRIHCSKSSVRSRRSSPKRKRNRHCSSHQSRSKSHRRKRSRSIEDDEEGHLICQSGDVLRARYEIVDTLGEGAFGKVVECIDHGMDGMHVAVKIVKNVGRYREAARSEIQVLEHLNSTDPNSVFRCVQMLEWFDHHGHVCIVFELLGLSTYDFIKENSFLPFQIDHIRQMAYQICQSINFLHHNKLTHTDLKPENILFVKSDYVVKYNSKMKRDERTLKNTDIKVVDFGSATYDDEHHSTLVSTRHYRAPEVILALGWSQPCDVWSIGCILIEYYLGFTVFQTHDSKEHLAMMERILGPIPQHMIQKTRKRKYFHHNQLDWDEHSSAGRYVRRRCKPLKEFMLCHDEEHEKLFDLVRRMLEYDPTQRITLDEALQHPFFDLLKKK

[20] = molecular target: Serine/threonine-protein kinase D1 (Homo sapiens) (UniProt Q15139); conditions: Compound concentration 100.0 nM

CC(C)CC(=O)N1CCc2nc(-c3ccc(Br)cc3)nc(N(C)Cc3ccccc3)c2C1 [THPP-1-NC]
inactive: inhibition [1] -1.11% | residual activity [2] 100% | inhibition [3] 29% | residual activity [4] 100% | residual activity [5] 100% | residual activity [6] 98% | inhibition [7] -6.28% | residual activity [8] 100% | residual activity [9] 100% | inhibition [10] 7.59% | residual activity [11] 81% | residual activity [12] 99% | residual activity [13] 100% | residual activity [14] 100% | residual activity [15] 89% | residual activity [16] 100% | residual activity [17] 100% | residual activity [18] 100% | residual activity [19] 92% | residual activity [20] 87%

COCCOc1nc(-c2ccc(Cl)nc2)nc2c1CN(C(=O)c1ncn3ccccc13)CC2 [THPP-1]
inactive: inhibition [1] 12.7% | residual activity [2] 100% | inhibition [3] -2.32% | residual activity [4] 100% | residual activity [5] 100% | residual activity [6] 83% | inhibition [7] 13.3% | residual activity [8] 100% | residual activity [9] 80% | inhibition [10] 7.79% | residual activity [11] 95% | residual activity [12] 100% | residual activity [13] 100% | residual activity [14] 100% | residual activity [15] 96% | residual activity [16] 100% | residual activity [17] 100% | residual activity [18] 100% | residual activity [19] 100% | residual activity [20] 90%
